The source of these data is patent US20260125370A1, “SULFOXIMINE COMPOUNDS AS HISTONE DEACETYLASE 6 INHIBITOR, AND PHARMACEUTICAL COMPOSITION COMPRISING THE SAME” (CHONG KUN DANG PHARMACEUTICAL CORP., priority 2022, published 2026).

Where only a bound is given, the exact number is not on record here.

The target in one assay is T1, human recombinant HDAC6 (Homo sapiens, UniProt Q9UBN7).
T1 construct: purchased Calbiochem 382180
T1 sequence (Q9UBN7 1-1215): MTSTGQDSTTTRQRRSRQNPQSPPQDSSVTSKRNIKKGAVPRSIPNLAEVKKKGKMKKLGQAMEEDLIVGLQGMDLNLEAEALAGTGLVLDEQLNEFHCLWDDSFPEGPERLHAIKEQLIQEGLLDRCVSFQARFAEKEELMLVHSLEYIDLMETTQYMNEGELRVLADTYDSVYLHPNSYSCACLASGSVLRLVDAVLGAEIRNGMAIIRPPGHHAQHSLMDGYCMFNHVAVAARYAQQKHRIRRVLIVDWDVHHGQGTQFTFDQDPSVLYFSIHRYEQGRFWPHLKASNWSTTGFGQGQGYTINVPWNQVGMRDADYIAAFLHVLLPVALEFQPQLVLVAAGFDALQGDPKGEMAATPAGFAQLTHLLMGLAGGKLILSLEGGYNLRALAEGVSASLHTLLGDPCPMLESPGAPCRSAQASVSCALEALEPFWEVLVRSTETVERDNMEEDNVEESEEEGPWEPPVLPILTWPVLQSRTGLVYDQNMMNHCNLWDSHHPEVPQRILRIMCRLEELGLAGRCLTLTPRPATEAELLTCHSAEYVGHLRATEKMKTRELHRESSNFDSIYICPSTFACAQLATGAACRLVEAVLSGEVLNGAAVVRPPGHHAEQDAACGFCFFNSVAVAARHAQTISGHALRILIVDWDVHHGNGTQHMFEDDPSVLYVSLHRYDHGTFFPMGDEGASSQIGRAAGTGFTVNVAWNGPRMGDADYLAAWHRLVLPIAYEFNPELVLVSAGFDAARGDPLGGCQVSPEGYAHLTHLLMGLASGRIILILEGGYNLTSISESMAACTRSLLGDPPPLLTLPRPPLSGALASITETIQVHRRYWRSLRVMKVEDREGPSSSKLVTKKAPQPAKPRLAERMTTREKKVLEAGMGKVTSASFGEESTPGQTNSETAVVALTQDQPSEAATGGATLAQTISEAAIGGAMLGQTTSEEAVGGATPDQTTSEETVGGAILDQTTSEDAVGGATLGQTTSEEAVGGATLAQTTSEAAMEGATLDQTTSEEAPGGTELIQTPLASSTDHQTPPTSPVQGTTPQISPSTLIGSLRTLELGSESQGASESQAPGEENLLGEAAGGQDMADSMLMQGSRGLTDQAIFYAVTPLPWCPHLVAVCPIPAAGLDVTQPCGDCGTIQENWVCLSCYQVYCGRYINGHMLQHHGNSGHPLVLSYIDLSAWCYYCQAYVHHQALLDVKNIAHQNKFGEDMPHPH
Kind of assay: HDAC6 enzyme activity inhibition (fluorimetric, in vitro). The assay is classed as biochemical. The following applies: samples at 0.1, 1, 10, 100 and 1000 nM. An outline of the steps: (§1)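 Recombinant human HDAC1 or HDAC6 (0.3 μg) with Fluor de Lys-SIRT1 substrate at […], 60 min at 37 °C, then developer 30 min; fluorescence Ex 360/Em 460. Compounds at 100–10000 nM for HDAC1 and 0.1–1000 nM for HDAC6; IC50 calculated.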

The target of the next assay is T2, human recombinant HDAC1 (Homo sapiens, UniProt Q13547).
T2 construct: purchased Enzolifesciences BML-SE456
As to the kind of experiment: HDAC1 enzyme activity inhibition (HDAC1 Fluorimetric Drug Discovery Assay Kit, in vitro). Type of assay: biochemical. The following applies: samples at 100, 1000 and 10000 nM. The method, boiled down:
as §1

One may read the IC50 as the concentration at which inhibition is half-maximal.

T2 sequence (Q13547 whole entry): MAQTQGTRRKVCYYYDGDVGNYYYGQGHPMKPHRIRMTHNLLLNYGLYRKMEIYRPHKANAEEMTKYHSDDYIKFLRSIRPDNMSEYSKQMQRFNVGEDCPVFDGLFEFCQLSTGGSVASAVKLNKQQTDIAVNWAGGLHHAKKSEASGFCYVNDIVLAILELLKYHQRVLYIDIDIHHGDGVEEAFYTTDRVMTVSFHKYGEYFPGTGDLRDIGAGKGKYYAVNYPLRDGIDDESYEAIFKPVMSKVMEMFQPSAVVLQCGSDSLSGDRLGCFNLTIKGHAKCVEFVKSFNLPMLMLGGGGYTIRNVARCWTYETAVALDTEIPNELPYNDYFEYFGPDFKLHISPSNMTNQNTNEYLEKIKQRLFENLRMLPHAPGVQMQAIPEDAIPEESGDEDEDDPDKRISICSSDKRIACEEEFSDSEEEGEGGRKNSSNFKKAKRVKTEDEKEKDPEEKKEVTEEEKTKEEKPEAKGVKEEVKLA

Consider `N=S1(=O)CCN(S(=O)(=O)N(Cc2ccc(-c3nnc(C(F)F)o3)cc2F)c2cc(F)ccc2F)CC1` [Compound 69, N-[[4-[5-(difluoromethyl)-1,3,4-oxadiazol-2-yl]-2-fluoro-phenyl]methyl]-N-(2,5-difluorophenyl)-1-imino-1-oxo-1,4-thiazinan-4-sulfonamide], for which the IC50 at human recombinant HDAC6 was 124 nM; at human recombinant HDAC1 it was over 10000 nM.
Turning to `N=S1(=O)CCN(C(=O)N(Cc2ccc(-c3nnc(C(F)F)o3)cc2F)c2ccccc2)CC1` [Compound 1, N-(4-(5-(difluoromethyl)-1,3,4-oxadiazol-2-yl)-2-fluorobenzyl)-1-imino-N-phenylthiomorpholin-4-carboxamide 1-oxide], the IC50 is 49.4 nM on human recombinant HDAC6 and over 10000 nM on human recombinant HDAC1.
With `N=S1(=O)CCN(C(=O)N(Cc2ccc(-c3nnc(C(F)F)o3)cc2F)c2cccc(-c3cncs3)c2)CC1` [Compound 43, N-(4-(5-(difluoromethyl)-1,3,4-oxadiazol-2-yl)-2-fluorobenzyl)-1-imino-N-(3-(thiazole-5-yl)phenyl)thiomorpholin-4-carboxamide 1-oxide], the IC50 at human recombinant HDAC6 was 88.9 nM; at human recombinant HDAC1, over 10000 nM.
Turning to `CC1CN(C(=O)N(Cc2ccc(-c3nnc(C(F)F)o3)cn2)c2ccccc2)CCS1(=N)=O` (stereo not shown) [Compound 85, N-[[5-[5-(difluoromethyl)-1,3,4-oxadiazol-2-yl]-2-pyridyl]methyl]-1-imino-2-methyl-1-oxo-N-phenyl-1,4-thiazinan-4-carboxamide], the figures for the IC50 on human recombinant HDAC6 and on human recombinant HDAC1 were 74.6 nM and over 10000 nM, respectively.
In the case of `N=S1(=O)CCN(C(=O)N(Cc2ccc(-c3nnc(C(F)F)o3)cn2)c2ccc(Cl)cc2Cl)CC1` [Compound 49, N-(2,4-dichlorophenyl)-N-((5-(5-(difluoromethyl)-1,3,4-oxadiazol-2-yl)pyridin-2-yl)methyl)-1-iminothiomorpholin-4-carboxamide 1-oxide], the IC50 at human recombinant HDAC6 is 77.7 nM; at human recombinant HDAC1 it was over 10000 nM.
The matching figures for `CS(=N)(=O)c1ccc(N(Cc2ccc(-c3nnc(C(F)F)o3)cn2)C(=O)N2CCS(=N)(=O)CC2)cc1` (stereo not shown) [Compound 15, N-((5-(5-(difluoromethyl)-1,3,4-oxadiazol-2-yl)pyridin-2-yl)methyl)-1-imino-N-(4-(S-methylsulfonimidoyl)phenyl)thiomorpholin-4-carboxamide 1-oxide]: 1350 nM and over 10000 nM.
For `N=S1(=O)CCN(CCS(=O)(=O)N(Cc2ccc(-c3nnc(C(F)F)o3)cc2F)c2ccccc2)CC1` [Compound 74, N-[[4-[5-(difluoromethyl)-1,3,4-oxadiazol-2-yl]-2-fluoro-phenyl]methyl]-2-(1-imino-1-oxo-1,4-thiazinan-4-yl)-N-phenyl-ethanesulfonamide] the same measures were 63.6 nM and over 10000 nM.
Take `N=S1(=O)CCN(C(=O)N(Cc2c(F)cc(-c3nnc(C(F)F)o3)cc2F)c2ccccc2F)CC1` [Compound 54, N-(4-(5-(difluoromethyl)-1,3,4-oxadiazol-2-y1)-2,6-difluorobenzyl)-N-(2-fluorophenyl)-1-iminothiomorpholin-4-carboxamide 1-oxide]: the figures for the IC50 at human recombinant HDAC6 and at human recombinant HDAC1 were 200 nM and over 10000 nM, respectively.
For `N=S1(=O)CCN(C(=O)N(Cc2ccc(-c3nnc(C(F)F)o3)cc2F)c2cccc(C(F)(F)F)c2)CC1` [Compound 31, N-(4-(5-(difluoromethyl)-1,3,4-oxadiazol-2-y1)-2-fluorobenzyl)-1-imino-N-(3-(trifluoromethyl)phenyl)thiomorpholin-4-carboxamide 1-oxide], the IC50 is 91.4 nM at human recombinant HDAC6 and over 10000 nM on human recombinant HDAC1.
Consider `O=C(N=S1(=O)CCN(C(=O)N(Cc2ccc(-c3nnc(C(F)F)o3)cn2)c2ccccc2)CC1)OCc1ccccc1` [Compound 5, Benzyl (4-(((5-(5-(difluoromethyl)-1,3,4-oxadiazol-2-yl)pyridin-2-yl)methyl)(phenyl)carbamoyl)-1-oxidothiomorpholin-1-ylidene)carbamate], for which the IC50 was 91.4 nM on human recombinant HDAC6 and over 10000 nM at human recombinant HDAC1.
For `N=S1(=O)CCN(C(=O)N(Cc2ccc(-c3nnc(C(F)F)o3)cn2)c2ccccc2)CC1` [Compound 3, N-((5-(5-(difluoromethyl)-1,3,4-oxadiazol-2-yl)pyridin-2-yl)methyl)-1-imino-N-phenylthiomorpholin-4-carboxamide 1-oxide], the IC50 on human recombinant HDAC6 was 151 nM; on human recombinant HDAC1, over 10000 nM.
Consider `O=C(N1CCS(=O)(=NC(=O)C(F)(F)F)CC1)N(Cc1ccc(-c2nnc(C(F)F)o2)cn1)c1ccccc1` [Compound 2, N-((5-(5-(difluoromethyl)-1,3,4-oxadiazol-2-yl)pyridin-2-yl)methyl)-N-phenyl-1-((2,2,2-trifluoroacetyl)imino)thiomorpholin-4-carboxamide 1-oxide], for which the IC50 on human recombinant HDAC6 was 168 nM; on human recombinant HDAC1 it was over 10000 nM.
The matching figures for `CC(=O)N=S1(=O)CCN(C(=O)N(Cc2ccc(-c3nnc(C(F)F)o3)cc2F)c2ccccc2)CC1` [Compound 40, 1-(acetylimino)-N-(4-(5-(difluoromethyl)-1,3,4-oxadiazol-2-yl)-2-fluorobenzyl)-N-phenylthiomorpholin-4-carboxamide 1-oxide]: 84.8 nM and over 10000 nM.
Take `N=S1(=O)CCN(S(=O)(=O)N(Cc2ccc(-c3nnc(C(F)F)o3)cn2)c2ccc(F)cc2)CC1` [Compound 76, N-[[5-[5-(difluoromethyl)-1,3,4-oxadiazol-2-yl]-2-pyridyl]methyl]-N-(4-fluorophenyl)-1-imino-1-oxo-1,4-thiazinan-4-sulfonamide]: the IC50 was 39.9 nM on human recombinant HDAC6 and over 10000 nM at human recombinant HDAC1.
Turning to `N=S1(=O)CCN(S(=O)(=O)N(Cc2ccc(-c3nnc(C(F)F)o3)cc2F)c2ccc(F)cc2)CC1` [Compound 78, N-[[4-[5-(difluoromethyl)-1,3,4-oxadiazol-2-yl]-2-fluoro-phenyl]methyl]-N-(4-fluorophenyl)-1-imino-1-oxo-1,4-thiazinan-4-sulfonamide], the IC50 is 78.7 nM on human recombinant HDAC6 and over 10000 nM on human recombinant HDAC1.
In the case of `N=S1(=O)CCN(C(=O)N(Cc2ccc(-c3nnc(C(F)F)o3)nn2)c2cccc(F)c2)CC1` [Compound 80, N-[[6-[5-(difluoromethyl)-1,3,4-oxadiazol-2-yl]pyridazin-3-yl]methyl]-N-(3-fluorophenyl)-1-imino-1-oxo-1,4-thiazinan-4-carboxamide], the IC50 is 146 nM on human recombinant HDAC6 and over 10000 nM at human recombinant HDAC1.
Regarding `N=S1(=O)CCN(C(=O)N(Cc2ccc(-c3nnc(C(F)F)o3)cc2F)c2ccc(Cl)cc2Cl)CC1` [Compound 51, N-(2,4-dichlorophenyl)-N-(4-(5-(difluoromethyl)-1,3,4-oxadiazol-2-y1)-2-fluorobenzyl)-1-iminothiomorpholin-4-carboxamide 1-oxide], the IC50 is 69.9 nM at human recombinant HDAC6 and over 10000 nM at human recombinant HDAC1.
